Measurements: ChEMBL document CHEMBL1201862, “PubChem BioAssay data set” (2004)
Active and inactive are the calls of the source.

Tests used:
[1] = molecular target: T1, Heat shock factor protein 1 (Mus musculus, UniProt P38532); assay: HSF1 potentiators in luciferase reporter cells, confirmation, cell-based, NIH3T3, luminescence, dose retest (AID 435004); format: functional;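 further: stress induced by proteasome inhibitor MG132 added 30 min after compound; luciferase reporter driven by HSF1 response element in NIH3T3 cells; actives raise luminescence as potentiators of the MG132 stress response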
T1 sequence (P38532 whole entry): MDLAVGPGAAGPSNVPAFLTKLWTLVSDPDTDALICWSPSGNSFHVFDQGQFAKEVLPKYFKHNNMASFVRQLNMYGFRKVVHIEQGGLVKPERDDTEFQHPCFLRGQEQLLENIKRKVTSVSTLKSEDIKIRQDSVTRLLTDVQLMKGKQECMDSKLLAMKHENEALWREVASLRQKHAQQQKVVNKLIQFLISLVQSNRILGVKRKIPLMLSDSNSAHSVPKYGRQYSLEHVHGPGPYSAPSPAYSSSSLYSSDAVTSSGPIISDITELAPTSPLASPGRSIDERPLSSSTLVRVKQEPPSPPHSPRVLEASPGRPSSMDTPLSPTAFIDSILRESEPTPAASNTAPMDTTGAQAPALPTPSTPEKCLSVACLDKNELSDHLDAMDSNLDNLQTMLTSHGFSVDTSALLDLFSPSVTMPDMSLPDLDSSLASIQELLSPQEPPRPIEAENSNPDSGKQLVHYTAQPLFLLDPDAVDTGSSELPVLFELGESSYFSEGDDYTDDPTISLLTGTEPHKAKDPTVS

[2] = molecular target: T2, Protein RecA (Mycobacterium tuberculosis, UniProt P9WHJ3); assay: Fluorescence Cell-Free Homogeneous Dose Retest to Identify Inhibitors of RecA-Intein Splicing Activity. [Related pubchem assays (depositor defined):AID2097, AID2223, AID489010, AID492950]; format: functional
T2 sequence (P9WHJ3 whole entry): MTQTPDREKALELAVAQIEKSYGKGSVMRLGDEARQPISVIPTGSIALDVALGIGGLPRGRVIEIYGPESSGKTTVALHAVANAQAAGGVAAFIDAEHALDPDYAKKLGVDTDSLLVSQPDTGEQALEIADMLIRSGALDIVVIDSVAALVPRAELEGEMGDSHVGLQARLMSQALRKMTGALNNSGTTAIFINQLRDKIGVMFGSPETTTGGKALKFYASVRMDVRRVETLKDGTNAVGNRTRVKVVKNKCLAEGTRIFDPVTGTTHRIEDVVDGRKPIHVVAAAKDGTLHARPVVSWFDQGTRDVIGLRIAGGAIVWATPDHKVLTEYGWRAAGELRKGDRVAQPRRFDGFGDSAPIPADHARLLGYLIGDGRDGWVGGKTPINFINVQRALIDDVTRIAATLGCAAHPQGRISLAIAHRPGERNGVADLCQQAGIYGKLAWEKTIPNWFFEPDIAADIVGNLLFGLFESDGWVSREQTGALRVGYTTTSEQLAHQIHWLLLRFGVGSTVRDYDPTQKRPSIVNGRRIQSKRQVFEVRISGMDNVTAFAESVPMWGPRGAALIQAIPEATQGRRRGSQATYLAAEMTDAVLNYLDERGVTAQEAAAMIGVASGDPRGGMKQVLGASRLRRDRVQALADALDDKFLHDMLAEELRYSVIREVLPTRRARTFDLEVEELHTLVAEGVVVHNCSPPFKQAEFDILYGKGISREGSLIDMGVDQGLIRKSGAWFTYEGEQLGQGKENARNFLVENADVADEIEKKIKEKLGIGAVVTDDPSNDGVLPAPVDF

[3] = Luminescence Cell-Based Dose Confirmation HTS to Identify Inhibitors of Platelet Dense Granule Release. [Related pubchem assays: 1663 (Primary HTS), 1678 (Summary of Project)]; format: functional
[4] = molecular target: Luciferin 4-monooxygenase (Photinus pyralis, UniProt P08659); assay: firefly luciferase enzyme inhibitors, dose response, biochemical, luminescence (AID 1891)
[5] = molecular target: T3, Replicative DNA helicase DnaB (Mycobacterium tuberculosis, UniProt P9WMR3); assay: DnaB intein splicing inhibitors, dose response, biochemical, cell-free fluorescence (AID 449749); format: functional
T3 sequence (P9WMR3 whole entry): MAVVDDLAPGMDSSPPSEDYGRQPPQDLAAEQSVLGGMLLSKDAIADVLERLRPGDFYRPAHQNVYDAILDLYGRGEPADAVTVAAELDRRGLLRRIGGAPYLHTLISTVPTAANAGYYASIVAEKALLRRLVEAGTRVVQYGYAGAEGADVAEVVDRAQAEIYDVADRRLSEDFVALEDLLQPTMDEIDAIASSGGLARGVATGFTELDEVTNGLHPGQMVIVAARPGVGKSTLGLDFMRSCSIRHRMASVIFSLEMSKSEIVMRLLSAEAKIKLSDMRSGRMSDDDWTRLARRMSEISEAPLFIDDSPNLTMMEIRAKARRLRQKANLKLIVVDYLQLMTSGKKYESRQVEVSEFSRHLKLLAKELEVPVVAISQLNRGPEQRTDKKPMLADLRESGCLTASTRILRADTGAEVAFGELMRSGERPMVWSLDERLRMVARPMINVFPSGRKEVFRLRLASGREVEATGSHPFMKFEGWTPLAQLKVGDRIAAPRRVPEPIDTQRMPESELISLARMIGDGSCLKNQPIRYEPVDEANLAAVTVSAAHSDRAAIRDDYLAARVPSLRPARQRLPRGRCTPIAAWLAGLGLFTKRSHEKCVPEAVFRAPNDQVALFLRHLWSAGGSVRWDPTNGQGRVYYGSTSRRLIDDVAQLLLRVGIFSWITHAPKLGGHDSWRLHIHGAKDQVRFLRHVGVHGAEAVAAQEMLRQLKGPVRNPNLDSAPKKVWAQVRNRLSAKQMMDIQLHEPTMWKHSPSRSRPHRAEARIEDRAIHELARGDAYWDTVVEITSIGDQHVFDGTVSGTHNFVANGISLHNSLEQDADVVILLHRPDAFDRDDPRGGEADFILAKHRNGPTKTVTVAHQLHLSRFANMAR

[6] = molecular target: T4, Coagulation factor XII (Homo sapiens, UniProt P00748); format: functional;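 further: activated factor XIIa alpha cleaving a fluorogenic AMC peptide substrate; inhibitor potency from loss of enzyme activity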
T4 sequence (P00748 whole entry): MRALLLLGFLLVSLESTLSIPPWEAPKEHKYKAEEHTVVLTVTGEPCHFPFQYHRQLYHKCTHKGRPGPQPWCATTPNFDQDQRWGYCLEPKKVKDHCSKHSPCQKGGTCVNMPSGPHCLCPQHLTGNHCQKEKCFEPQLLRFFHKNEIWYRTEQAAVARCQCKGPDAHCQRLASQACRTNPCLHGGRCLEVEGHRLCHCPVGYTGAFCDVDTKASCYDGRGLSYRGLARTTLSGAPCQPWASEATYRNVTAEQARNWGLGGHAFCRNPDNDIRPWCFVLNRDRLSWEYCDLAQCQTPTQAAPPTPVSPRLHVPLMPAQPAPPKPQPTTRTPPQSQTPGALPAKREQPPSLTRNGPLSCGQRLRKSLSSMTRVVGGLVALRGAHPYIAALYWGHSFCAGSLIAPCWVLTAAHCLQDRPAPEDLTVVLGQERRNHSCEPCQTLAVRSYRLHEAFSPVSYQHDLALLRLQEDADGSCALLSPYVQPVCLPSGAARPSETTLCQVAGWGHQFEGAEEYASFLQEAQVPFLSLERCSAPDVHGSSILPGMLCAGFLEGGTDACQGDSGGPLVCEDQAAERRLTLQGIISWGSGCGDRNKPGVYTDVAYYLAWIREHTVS

[7] = molecular target: T5, Cytochrome P450 1A2 (Homo sapiens, UniProt P05177);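 further: PubChem cytochrome P450 panel assay, CYP1A2 panel member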
T5 sequence (P05177 whole entry): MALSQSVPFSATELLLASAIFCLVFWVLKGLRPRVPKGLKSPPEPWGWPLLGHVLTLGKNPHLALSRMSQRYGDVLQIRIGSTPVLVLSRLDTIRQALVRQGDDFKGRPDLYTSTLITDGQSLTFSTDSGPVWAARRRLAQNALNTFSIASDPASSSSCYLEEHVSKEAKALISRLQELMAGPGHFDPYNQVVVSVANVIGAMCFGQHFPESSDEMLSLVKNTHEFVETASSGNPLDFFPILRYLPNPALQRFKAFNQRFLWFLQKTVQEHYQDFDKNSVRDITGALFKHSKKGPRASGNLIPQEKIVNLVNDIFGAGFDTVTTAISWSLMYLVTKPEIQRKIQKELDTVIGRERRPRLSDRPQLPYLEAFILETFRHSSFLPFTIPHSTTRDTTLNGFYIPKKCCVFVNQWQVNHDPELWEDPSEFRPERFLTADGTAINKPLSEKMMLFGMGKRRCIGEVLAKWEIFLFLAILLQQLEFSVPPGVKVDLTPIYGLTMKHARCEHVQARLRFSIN

[8] = molecular target: Cytochrome P450 2C9 (Homo sapiens, UniProt P11712)
[9] = molecular target: Cytochrome P450 2D6 (Homo sapiens, UniProt P10635);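 further: CYP2D6 member of a cytochrome P450 panel assay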
[10] = molecular target: Cytochrome P450 2C19 (Homo sapiens, UniProt P33261); assay: Cytochrome panel assay with activity outcomes. Panel member name: p450-cyp2c19 Compounds with AC50 equal or less than 10 uM are considered active; format: functional; details: read-out: AC50
[11] = molecular target: Cytochrome P450 3A4 (Homo sapiens, UniProt P08684);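 further: CYP3A4 tested as one member of a cytochrome P450 panel screen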
[12] = molecular target: Heat shock protein HSP 90-alpha (Homo sapiens, UniProt P07900); format: functional, organism-based

Sequence of Cytochrome P450 2D6 (P10635 whole entry): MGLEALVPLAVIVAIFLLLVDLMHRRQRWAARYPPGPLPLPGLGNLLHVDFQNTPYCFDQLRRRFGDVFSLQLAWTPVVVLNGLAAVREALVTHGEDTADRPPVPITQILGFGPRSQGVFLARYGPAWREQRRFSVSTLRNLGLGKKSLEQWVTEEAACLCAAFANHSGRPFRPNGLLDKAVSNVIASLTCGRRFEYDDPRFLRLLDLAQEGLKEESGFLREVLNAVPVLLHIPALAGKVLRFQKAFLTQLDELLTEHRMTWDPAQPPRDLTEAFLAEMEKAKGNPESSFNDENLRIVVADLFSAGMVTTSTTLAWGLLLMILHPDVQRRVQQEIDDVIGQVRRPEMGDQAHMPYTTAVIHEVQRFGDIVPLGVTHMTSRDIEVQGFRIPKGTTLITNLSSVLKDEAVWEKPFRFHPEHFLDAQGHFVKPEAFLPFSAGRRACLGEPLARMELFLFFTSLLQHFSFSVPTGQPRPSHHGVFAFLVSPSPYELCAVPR
Sequence of Cytochrome P450 2C9 (P11712 whole entry): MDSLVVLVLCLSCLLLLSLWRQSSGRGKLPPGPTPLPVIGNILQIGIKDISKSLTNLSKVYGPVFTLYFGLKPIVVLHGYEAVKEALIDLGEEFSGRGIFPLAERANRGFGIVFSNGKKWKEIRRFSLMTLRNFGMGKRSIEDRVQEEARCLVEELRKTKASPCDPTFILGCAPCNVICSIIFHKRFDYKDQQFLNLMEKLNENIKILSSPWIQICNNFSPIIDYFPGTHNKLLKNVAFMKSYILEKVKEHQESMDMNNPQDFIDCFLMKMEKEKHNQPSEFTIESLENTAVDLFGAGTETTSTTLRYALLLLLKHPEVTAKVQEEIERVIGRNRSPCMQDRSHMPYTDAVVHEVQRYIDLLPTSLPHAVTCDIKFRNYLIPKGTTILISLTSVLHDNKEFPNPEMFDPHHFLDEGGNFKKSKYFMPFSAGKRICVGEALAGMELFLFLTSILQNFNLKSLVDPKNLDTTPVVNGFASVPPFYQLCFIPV
Sequence of Cytochrome P450 2C19 (P33261 whole entry): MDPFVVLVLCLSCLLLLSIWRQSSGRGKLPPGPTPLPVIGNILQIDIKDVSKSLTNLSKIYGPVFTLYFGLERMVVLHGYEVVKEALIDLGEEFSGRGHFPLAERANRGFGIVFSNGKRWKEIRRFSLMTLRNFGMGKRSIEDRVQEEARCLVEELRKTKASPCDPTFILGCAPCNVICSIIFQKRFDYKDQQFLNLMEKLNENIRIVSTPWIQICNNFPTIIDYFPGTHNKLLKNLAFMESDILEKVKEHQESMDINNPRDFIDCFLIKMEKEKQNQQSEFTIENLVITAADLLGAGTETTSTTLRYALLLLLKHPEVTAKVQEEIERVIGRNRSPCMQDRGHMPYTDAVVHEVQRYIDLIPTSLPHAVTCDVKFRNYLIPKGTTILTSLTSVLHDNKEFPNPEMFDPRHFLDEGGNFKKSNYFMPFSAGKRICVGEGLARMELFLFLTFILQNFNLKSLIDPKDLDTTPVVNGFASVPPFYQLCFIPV
Sequence of Luciferin 4-monooxygenase (P08659 whole entry): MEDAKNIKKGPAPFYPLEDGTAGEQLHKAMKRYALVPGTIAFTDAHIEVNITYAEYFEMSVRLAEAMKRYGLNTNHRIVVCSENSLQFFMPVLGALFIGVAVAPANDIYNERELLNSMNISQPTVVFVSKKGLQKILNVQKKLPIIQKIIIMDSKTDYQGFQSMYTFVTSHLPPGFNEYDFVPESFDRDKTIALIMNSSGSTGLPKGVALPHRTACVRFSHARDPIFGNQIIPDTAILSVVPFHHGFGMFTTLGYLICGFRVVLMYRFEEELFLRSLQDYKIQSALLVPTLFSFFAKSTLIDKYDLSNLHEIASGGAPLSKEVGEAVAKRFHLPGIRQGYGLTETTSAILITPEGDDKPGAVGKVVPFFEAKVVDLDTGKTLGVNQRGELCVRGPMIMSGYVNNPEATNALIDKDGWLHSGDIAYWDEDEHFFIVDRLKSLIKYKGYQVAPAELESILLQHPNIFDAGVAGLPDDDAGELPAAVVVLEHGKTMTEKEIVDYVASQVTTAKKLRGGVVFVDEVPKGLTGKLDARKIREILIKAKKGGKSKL
Sequence of Cytochrome P450 3A4 (P08684 whole entry): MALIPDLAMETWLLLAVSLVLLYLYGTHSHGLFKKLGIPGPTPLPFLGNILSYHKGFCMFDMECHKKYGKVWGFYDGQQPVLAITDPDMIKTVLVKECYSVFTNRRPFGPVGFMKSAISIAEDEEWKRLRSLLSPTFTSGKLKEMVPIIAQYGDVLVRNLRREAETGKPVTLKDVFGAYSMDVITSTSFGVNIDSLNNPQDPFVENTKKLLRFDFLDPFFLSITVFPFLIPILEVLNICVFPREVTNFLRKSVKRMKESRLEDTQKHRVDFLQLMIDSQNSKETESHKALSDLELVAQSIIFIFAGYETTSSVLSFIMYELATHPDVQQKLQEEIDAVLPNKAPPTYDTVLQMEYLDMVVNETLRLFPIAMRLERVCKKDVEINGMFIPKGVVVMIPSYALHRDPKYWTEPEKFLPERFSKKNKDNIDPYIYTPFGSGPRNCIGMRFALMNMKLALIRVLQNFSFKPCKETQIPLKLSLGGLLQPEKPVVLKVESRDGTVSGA

SMILES: CCN(C(=O)COC(=O)c1c2c(nc3ccccc13)/C(=C/c1ccccc1)CC(C)C2)C1CCS(=O)(=O)C1 (stereo not given)
- EC50 [1]: 14.3 µM (active)

SMILES: CCCc1noc2c1C(c1ccoc1)C(C#N)=C(N)N2 (stereo not given)
- EC50 [2]: 1.06 µM (active)
- EC50 [3]: > 112 µM (not active)
- EC50 [4]: > 112 µM (not active)
- AC50 [5]: 157 µM (active)

SMILES: NC(=O)c1c(N)sc2c1CCC2
- IC50 [6]: > 50 µM (inactive)

SMILES: CCOc1ccccc1NC(=O)C1Cc2ccccc2CN1S(C)(=O)=O (stereo not given)
- AC50 [7]: 39.8 µM (inconclusive)
- AC50 [8]: inconclusive

SMILES: Cc1ccc(C(=O)NCCNc2ccc(Cl)cc2[N+](=O)[O-])o1
- AC50 [9]: 20 µM (inconclusive)
- IC50 [6]: > 50 µM (inactive)

SMILES: O=C(CF)NC(NC(S)=Nc1ccccc1O)C(Cl)(Cl)Cl (stereo not given)
- EC50 [1]: > 260 µM (inactive)

SMILES: O=C(CSC1=NCCN1)Nc1cccc(C(F)(F)F)c1
- EC50 [1]: > 260 µM (inactive)

SMILES: Cc1csc(NC(=O)C(CC(C)C)NS(=O)(=O)c2ccc3c(c2)oc(=O)n3C)n1 (stereo not given)
- IC50 [6]: > 50 µM (inactive)

SMILES: COc1ccccc1NC(=O)c1ccc(-n2cccn2)nc1
- AC50 [8]: inconclusive
- AC50 [10]: 25.1 µM (inconclusive)

SMILES: O=C(CS(=O)(=O)c1cn(Cc2ccc(Cl)cc2)c2ccccc12)N1CCOCC1
- IC50 [6]: > 50 µM (inactive)

SMILES: COc1ccc2c(c1)CCc1sc(NC(=O)c3ccc(C)cc3)nc1-2
- IC50 [6]: > 50 µM (inactive)

SMILES: CSc1nc(S(=O)(=O)c2ccc(C)cc2)c(Cl)s1
- EC50 [1]: > 260 µM (inactive)

SMILES: Nc1ccccc1Oc1ncc(C(F)(F)F)cc1Cl
- AC50 [8]: inconclusive

SMILES: Cc1ccc2c(c1)N(CCC(=O)NCC1CCCO1)C(=O)CO2 (stereo not given)
- AC50 [8]: inconclusive
- AC50 [11]: 25.1 µM (inconclusive)

SMILES: CN(C)c1ccc(-c2nc(N(C)C)c3ccccc3n2)cc1
- AC50 [8]: inconclusive
- AC50 [10]: 39.8 µM (inconclusive)

SMILES: COCCNc1cc(-c2ccccc2CN(C)C)ncn1
- AC50 [8]: inconclusive
- AC50 [9]: 31.6 µM (inconclusive)

SMILES: CCOC(=O)CC(NC(=O)C1c2ccccc2Oc2ccccc21)c1ccccc1Cl (stereo not given)
- EC50 [1]: > 260 µM (inactive)

SMILES: COc1cc2c(cc1OC)C(=O)N1[C@H]3c4ccccc4OC[C@@H]3[C@H](c3ccccc3)[C@]1(C)C(=O)N2
- AC50 [12]: 9.07 µM (active)

SMILES: Cc1nc(-c2ccc(Cl)cc2)sc1C(=O)CBr
- EC50 [1]: 70.2 µM (active)

SMILES: Cc1cc(C)c2cc(C(=O)N(C)C3CCN(C)CC3)[nH]c2c1
- EC50 [1]: > 260 µM (inactive)

SMILES: Cn1nnnc1SCCNC/C=C/c1ccccc1
- EC50 [1]: > 260 µM (inactive)

SMILES: Cc1cc(C(=O)CC#N)c(C)n1CC(F)(F)F
- AC50 [8]: inconclusive
- AC50 [10]: 22.4 µM (inconclusive)

SMILES: Cc1nc(O)nc(O)c1/C=N/NC(=O)[C@@H](N)CC(C)C
- IC50 [6]: > 50 µM (inactive)

SMILES: C=CCOc1ccccc1OC[C@H](O)CNC(C)C [OXPRENOLOL]
- AC50 [8]: inconclusive
- AC50 [9]: 7.94 µM (inconclusive)
